Reference: patent US12233161B1, “Lipids and lipid nanoparticle formulations” (LONGUIDE BIOPHARMA CORPORATION, priority 2024, dated 2025)

Assays:
[1] = Particle size and PDI of nucleic acid lipid nanoparticle preparations by dynamic light scattering; type: physicochemical
In short: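 LNP solution (about 0.04 mg/mL mRNA before dilution) was diluted in ultrapure water and mixed by gentle pipetting. Particle size and PDI were then measured by dynamic light scattering.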

[2] = tested on: mice; test: In vivo delivery of FLuc-mRNA lipid nanoparticles in mice, in vivo imaging (IVIS); settings: for tissue-targeting specificity (lung vs spleen depending on molar percentage of compound): certain formulations, Table 2
In short: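 Mice (n=3) received about 75 μL FLuc-mRNA LNP per mouse intramuscularly (rectus femoris), intravenously (tail vein), intraperitoneally or subcutaneously (back). After injection, D-luciferin (200 μL, 15 mg/mL) was given i.p. 10-15 min before IVIS imaging.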

[3] = tested on: mice; test: In vivo delivery of FLuc-circ-RNA lipid nanoparticles in mice; settings: Fluc-circ-RNA LNP; for IVIS: organ not given
Method: Lipid nanoparticles loaded with nucleic acid drugs were prepared according to step 2, replacing FLuc-mRNA with FLuc-circ-RNA (Hongene Biotech Corporation, Shanghai). After formulation, the nanoparticles were administered via intramuscular injection (into the quadriceps femoris muscle of mice), intravenous injection (into the tail vein of mice), intraperitoneal injection, or subcutaneous injection (subcutaneously on the back). Approximately 75 μL was injected per mouse, with a total of 3 mice per group. In vivo imaging (PerkinElmer, IVIS Lumina III) was performed after a certain period of time. Ten to fifteen minutes before imaging, 200 μL of a 15 mg/mL D-Luciferin working solution was injected intraperitoneally, followed by imaging analysis using the in vivo imaging system.

[4] = Potential characterization of nucleic acid lipid nanoparticle preparations; type: physicochemical
In short: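 Nanoparticles (about 0.04 mg/mL mRNA) were diluted in ultrapure water for Malvern ZEN3700 measurement: 20 μL into 780 μL for potential alone, or 27.5 μL into 200 μL for DLS particle size followed by addition of 600 μL water for potential.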

[5] = DMG-PEG2000:DSPC:Chol:Lipid 1.00:11.50:22.50:65.00, N/P 65, mRNA LNP
[6] = DMG-PEG2000:DSPC:Chol:Lipid 1.00:16.00:48.00:35.00, N/P 18, mRNA LNP
[7] = DMG-PEG2000:DSPC:Chol:Lipid 1.00:16.00:48.00:35.00, N/P 30, mRNA LNP
[8] = DMG-PEG2000:DSPC:Chol:Lipid 1.47:11.16:38.97:48.40, N/P 30, mRNA LNP
[9] = Fluc-circ-RNA LNP, preparation given IV
[10] = DMG-PEG2000:DSPC:Chol:Lipid 1.00:11.50:22.50:65.00, N/P 65, IV, liver
[11] = DMG-PEG2000:DSPC:Chol:Lipid 1.00:11.50:22.50:65.00, N/P 65, IV, lung
[12] = DMG-PEG2000:DSPC:Chol:Lipid 1.00:11.50:22.50:65.00, N/P 65, IV, spleen
[13] = DMG-PEG2000:DSPC:Chol:Lipid 1.00:16.00:48.00:35.00, N/P 18, IV, liver
[14] = DMG-PEG2000:DSPC:Chol:Lipid 1.00:16.00:48.00:35.00, N/P 18, IV, lung
[15] = DMG-PEG2000:DSPC:Chol:Lipid 1.00:16.00:48.00:35.00, N/P 18, IV, spleen
[16] = DMG-PEG2000:DSPC:Chol:Lipid 1.00:16.00:48.00:35.00, N/P 30, IV, liver
[17] = DMG-PEG2000:DSPC:Chol:Lipid 1.00:16.00:48.00:35.00, N/P 30, IV, lung
[18] = DMG-PEG2000:DSPC:Chol:Lipid 1.00:16.00:48.00:35.00, N/P 30, IV, spleen
[19] = mRNA LNP, 1.00:4.00:30.00:65.00, N/P 30
[20] = mRNA LNP, 1.40:11.15:38.95:48.50, N/P 30
[21] = mRNA LNP, 1.00:4.00:30.00:65.00, N/P 30, IV, liver
[22] = mRNA LNP, 1.00:4.00:30.00:65.00, N/P 30, IV, lung
[23] = mRNA LNP, 1.00:4.00:30.00:65.00, N/P 30, IV, spleen
[24] = mRNA LNP, 1.40:11.15:38.95:48.50, N/P 30, IV, liver
[25] = mRNA LNP, 1.40:11.15:38.95:48.50, N/P 30, IV, lung
[26] = mRNA LNP, 1.40:11.15:38.95:48.50, N/P 30, IV, spleen
[27] = DMG-PEG2000:DSPC:Chol:Lipid 1.40:11.15:38.95:48.50, N/P 10, mRNA LNP, preparation given IH
[28] = DMG-PEG2000:DSPC:Chol:Lipid 1.40:11.15:38.95:48.50, N/P 10, mRNA LNP, preparation given IV
[29] = Fluc-circ-RNA LNP, preparation given IM
[30] = DMG-PEG2000:DSPC:Chol:Lipid 1.40:11.15:38.95:48.50, N/P 10, IV, liver
[31] = DMG-PEG2000:DSPC:Chol:Lipid 1.40:11.15:38.95:48.50, N/P 10, IV, lung
[32] = DMG-PEG2000:DSPC:Chol:Lipid 1.40:11.15:38.95:48.50, N/P 10, IV, spleen

SMILES: CCCCCCCCCCCCOC(=O)C(O)CN(CCN(C)CCN(CC(O)C(=O)OCCCCCCCCCCCC)CC(O)C(=O)OCCCCCCCCCCCC)CC(O)C(=O)OCCCCCCCCCCCC (stereo not shown) [Compound L0262]
- PDI [1, 5]: 0.22 ± 0.01
- Particle size [1, 5]: 145.43 ± 1.37 nm
- PDI [1, 6]: 0.16 ± 0.03
- Particle size [1, 6]: 135.90 ± 1.28 nm
- PDI [1, 7]: 0.18 ± 0.02
- Particle size [1, 7]: 137.37 ± 1.50 nm
- PDI [1, 8]: 0.24 ± 0.02
- Particle size [1, 8]: 93.36 ± 1.24 nm
- PDI [1, 9]: 0.16
- Particle size (nm) [1, 9]: 128.4 nm
- IVIS ([2]; DMG-PEG2000:DSPC:Chol:Lipid 1.00:11.50:22.50:65.00, N/P 65, IV, body): 2.54 × 10^7
- % of organ targeting [2, 10]: 1.47%
- IVIS [2, 10]: 1.32 × 10^6
- % of organ targeting [2, 11]: 85.62%
- IVIS [2, 11]: 7.69 × 10^7
- % of organ targeting [2, 12]: 12.91%
- IVIS [2, 12]: 1.16 × 10^7
- IVIS ([2]; DMG-PEG2000:DSPC:Chol:Lipid 1.00:16.00:48.00:35.00, N/P 18, IV, body): 1.06 × 10^8
- % of organ targeting [2, 13]: 5.38%
- IVIS [2, 13]: 5.61 × 10^6
- % of organ targeting [2, 14]: 1.85%
- IVIS [2, 14]: 1.93 × 10^6
- % of organ targeting [2, 15]: 92.76%
- IVIS [2, 15]: 9.67 × 10^7
- IVIS ([2]; DMG-PEG2000:DSPC:Chol:Lipid 1.00:16.00:48.00:35.00, N/P 30, IV, body): 2.91 × 10^7
- % of organ targeting [2, 16]: 15.31%
- IVIS [2, 16]: 3.92 × 10^6
- % of organ targeting [2, 17]: 11.64%
- IVIS [2, 17]: 2.98 × 10^6
- % of organ targeting [2, 18]: 73.05%
- IVIS [2, 18]: 1.87 × 10^7
- IVIS ([2]; DMG-PEG2000:DSPC:Chol:Lipid 1.47:11.16:38.97:48.40, N/P 30, IM, whole body scan): 2.83 × 10^5
- tissue-targeting specificity (lung vs spleen depending on molar percentage of compound) [2]: strong tissue-targeting specificity
- % of organ targeting ([3]; IV, liver): 3.78%
- % of organ targeting ([3]; IV, lung): 8.14%
- % of organ targeting ([3]; IV, spleen): 88.08%
- Zeta potential (mV) [4, 9]: 15.53 mV

SMILES: CCCCCCCCCCCCNC(=O)CCN(CCC(=O)NCCCCCCCCCCCC)CCN(C)CCN(CCC(=O)NCCCCCCCCCCCC)CCC(=O)NCCCCCCCCCCCC [L0264-Control, reference compound]
- PDI [1, 19]: 0.17
- Particle size (nm) [1, 19]: 97.75 nm
- PDI [1, 20]: 0.18
- Particle size (nm) [1, 20]: 91.53 nm
- % of organ targeting [2, 21]: 0.58%
- IVIS [2, 21]: 1.67E+06
- % of organ targeting [2, 22]: 86.18%
- IVIS [2, 22]: 2.49E+08
- % of organ targeting [2, 23]: 13.25%
- IVIS [2, 23]: 3.82E+07
- IVIS ([2]; mRNA LNP, 1.40:11.15:38.95:48.50, N/P 30, IM, organ not given): 1.37E+05
- % of organ targeting [2, 24]: 1.25%
- IVIS [2, 24]: 8.01E+05
- % of organ targeting [2, 25]: 74.91%
- IVIS [2, 25]: 4.81E+07
- % of organ targeting [2, 26]: 23.85%
- IVIS [2, 26]: 1.53E+07
- IVIS ([2]; mRNA LNP, DMG-PEG2000:DSPC:Chol:lipid 1.00:4.00:30.00:65.00, N/P 30, IV, body): 1.10E+08
- IVIS ([2]; mRNA LNP, DMG-PEG2000:DSPC:Chol:lipid 1.40:11.15:38.95:48.50, N/P 30, IV, body): 2.50E+07
- Zeta potential (mV) [4, 19]: 13.40 mV
- Zeta potential (mV) [4, 20]: 16.43 mV

SMILES: CCCCCCCCCCCOC(=O)CCCCCN(CCO)CCCCCCCC(=O)OC(CCCCCCCC)CCCCCCCC [SM-102, reference compound]
- PDI [1, 27]: 0.16 ± 0.01
- Particle size [1, 27]: 127.47 ± 2.05 nm
- Particle size ([1]; DMG-PEG2000:DSPC:Chol:Lipid 1.40:11.15:38.95:48.50, N/P 10, mRNA LNP, preparation given IM): 111.27 ± 0.84 nm
- PDI [1, 28]: 0.06 ± 0.02
- Particle size [1, 28]: 131.20 ± 1.25 nm
- PDI [1, 29]: 0.09
- Particle size (nm) [1, 29]: 90.08 nm
- PDI [1, 9]: 0.19
- Particle size (nm) [1, 9]: 65.67 nm
- IVIS ([2]; DMG-PEG2000:DSPC:Chol:Lipid 1.40:11.15:38.95:48.50, N/P 10, IH, whole body scan): 1.62 × 10^7
- IVIS ([2]; DMG-PEG2000:DSPC:Chol:Lipid 1.40:11.15:38.95:48.50, N/P 10, IM, whole body scan): 6.67 × 10^7
- IVIS ([2]; DMG-PEG2000:DSPC:Chol:Lipid 1.40:11.15:38.95:48.50, N/P 10, IV, body): 1.02 × 10^8
- % of organ targeting [2, 30]: 61.21%
- IVIS [2, 30]: 1.99 × 10^7
- % of organ targeting [2, 31]: 0.96%
- IVIS [2, 31]: 3.11 × 10^5
- % of organ targeting [2, 32]: 37.83%
- IVIS [2, 32]: 1.23 × 10^7
- tissue-targeting specificity (lung vs spleen depending on molar percentage of compound) [2]: not observed
- IVIS ([3]; IM): 2.06E+09
- IVIS ([3]; IV): 1.06E+09
